Test results published in patent US11981669B2, “1,7-naphthyridine derivative and preparation method and use therefor” (CSPC ZHONGQI PHARMACEUTICAL TECHNOLOGY (SHIJIAZHUANG) CO., …, priority 2018, dated 2024).
Marks after values point to notes of the source that are not given here.

Tests used:
[1] = test system: reticulocytes; experiment: Effect on reticulocytes of normal mice; format: in vivo, Balb/c mice; parameters: Reticulocytes (RETIC), average: unit not given here; details: for Reticulocytes (RETIC), average: once, 72 h after administration
Experimental: 72 Balb/c mice, male, were divided into 12 groups, 6 mice in each treatment group. In the positive drug control groups: the mice in the FG-4592 treatment groups were orally administered once, at two doses of 10 mg/kg and 50 mg/kg, and the mice in the rhEPO treatment group was intraperitoneaily injected once, at a dose of 100 IU/kg. The compounds of the present disclosure were all orally administered once at a dose of 10 mg/kg. 72 h after the administration, blood was collected from the orbit of all animals, and subjected to EDTA-K2 anticoagulation. Then reticulocytes (RETIC) were counted with an automatic blood cell analyzer.

[2] = test system: HIF-1α; experiment: Expression of HIF-1α protein in Hep3B cells (western blot, grayscale analysis); format: cell-based, Human; details: for fold induction at 30 µM: Homo sapiens, 2 h, compound at 30 μM, 10 μM and 3 μM, read-out: HIF-1α level of the compound of the present disclosure/HIF-1α level of blank control
Experimental: (§1) A test compound was dissolved in dimethyl sulfoxide into a 100 mM stock solution, and then was diluted with 0.5% FBS-containing DMEM medium into 30 μM, 10 μM and 3 μM for later use. Human liver cancer cells Hep3B were seeded in a six-well plate at a density of 2.25*10^5 cells/well, 2 mL per well. After cultivation overnight, the cells were treated with compounds at different concentrations for 2 h. The proteins were extracted for western blot and further grayscale analysis.

[3] = test system: HIF-2α; experiment: Expression of HIF-2α protein in Hep3B cells (western blot, grayscale analysis); format: cell-based, Human; details: for fold induction at 30 µM: Homo sapiens, 2 h, compound at 30 μM, 10 μM and 3 μM, read-out: HIF-2α level of the compound of the present disclosure/HIF-2α level of blank control
Experimental: as §1

[4] = test system: rats with residual kidney; experiment: SD rat residual kidney experiment; format: in vivo, SD rats; parameters: Hematocrit / Alanine aminotransferase / Glutamic-oxalacetic transaminase: unit not given here
Experimental: 79 SD rats were subjected to residual kidney surgery after anesthesia (left kidney was resected, one third of the right kidney was left, and the resected kidney part was weighed to confirm the surgical error). After 4 weeks, 45 surviving rats were subjected to blood cell dection and then assigned according to the HCT value 37 rats in good condition were selected and divided into the following groups: Link-118 (5, 10 mg/kg), Link-121 (5, 10 mg/kg), and FG-4592 (10 mg/kg), 6 rats in each treatment group, and 7 in the model group. 4 rats were assigned to the blank control group. The rats were administered three times each week (administered on Monday, Wednesday, and Friday), for 15 times, and blood was taken 24 hours after the last administration (tested by blood routine, blood biochemistry, hepcidin kit).

[5] = test system: erythropoietin; experiment: Expression of erythropoietin in vivo (plasma EPO ELISA after single oral dose); details: once; for EPO OD value: plasma 6 hours after administration;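 for all read-outs here: male C57 mice given compound by mouth, five animals per treatment group, with EPO in plasma measured by ELISA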
Experimental: (2) 30 c57 mice, male, were divided into 6 groups, 5 mice in each treatment group. […] 6 hours after the administration, blood was taken, and plasma was collected for EPO detection with an ELISA kit (R&D Co.).

[6] = molecular target: CYP1A2 (Homo sapiens (Human), UniProt P05177); format: in vitro ADME
CYP1A2, sequence (P05177 whole entry): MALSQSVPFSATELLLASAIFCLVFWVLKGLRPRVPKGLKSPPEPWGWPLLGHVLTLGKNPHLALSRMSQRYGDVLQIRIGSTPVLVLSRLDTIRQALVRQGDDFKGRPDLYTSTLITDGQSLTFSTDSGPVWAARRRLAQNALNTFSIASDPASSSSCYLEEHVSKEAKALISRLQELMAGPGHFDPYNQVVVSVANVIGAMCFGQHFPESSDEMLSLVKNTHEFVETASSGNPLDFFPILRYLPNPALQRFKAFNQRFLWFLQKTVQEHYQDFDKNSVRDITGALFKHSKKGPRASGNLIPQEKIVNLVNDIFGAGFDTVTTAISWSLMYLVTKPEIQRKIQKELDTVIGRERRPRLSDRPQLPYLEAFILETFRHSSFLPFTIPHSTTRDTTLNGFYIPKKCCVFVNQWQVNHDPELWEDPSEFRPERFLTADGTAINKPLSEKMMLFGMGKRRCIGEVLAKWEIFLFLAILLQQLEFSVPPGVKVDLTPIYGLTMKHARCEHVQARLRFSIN
Excerpt: (§2) The compounds of the present disclosure were subjected to the CYP450 enzyme inhibition assay.

[7] = molecular target: CYP2C19 (Homo sapiens (Human), UniProt P33261); experiment: CYP enzyme inhibition assay; format: in vitro ADME
CYP2C19, sequence (P33261 whole entry): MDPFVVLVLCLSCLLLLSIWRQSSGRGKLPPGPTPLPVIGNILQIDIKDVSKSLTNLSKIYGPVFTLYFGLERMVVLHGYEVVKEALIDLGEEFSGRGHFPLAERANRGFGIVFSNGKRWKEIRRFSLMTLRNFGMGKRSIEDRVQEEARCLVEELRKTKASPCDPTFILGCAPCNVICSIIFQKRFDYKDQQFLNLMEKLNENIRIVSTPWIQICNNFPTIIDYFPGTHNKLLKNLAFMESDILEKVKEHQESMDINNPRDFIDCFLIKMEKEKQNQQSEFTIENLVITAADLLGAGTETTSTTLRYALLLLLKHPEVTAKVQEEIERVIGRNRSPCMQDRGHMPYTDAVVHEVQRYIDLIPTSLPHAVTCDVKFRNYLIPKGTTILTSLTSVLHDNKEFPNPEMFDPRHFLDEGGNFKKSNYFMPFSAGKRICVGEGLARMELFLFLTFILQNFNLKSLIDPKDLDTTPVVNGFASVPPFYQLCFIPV
Excerpt: as §2

[8] = molecular target: CYP2C9 (Homo sapiens (Human), UniProt P11712); experiment: CYP enzyme inhibition assay; format: in vitro ADME
CYP2C9, sequence (P11712 whole entry): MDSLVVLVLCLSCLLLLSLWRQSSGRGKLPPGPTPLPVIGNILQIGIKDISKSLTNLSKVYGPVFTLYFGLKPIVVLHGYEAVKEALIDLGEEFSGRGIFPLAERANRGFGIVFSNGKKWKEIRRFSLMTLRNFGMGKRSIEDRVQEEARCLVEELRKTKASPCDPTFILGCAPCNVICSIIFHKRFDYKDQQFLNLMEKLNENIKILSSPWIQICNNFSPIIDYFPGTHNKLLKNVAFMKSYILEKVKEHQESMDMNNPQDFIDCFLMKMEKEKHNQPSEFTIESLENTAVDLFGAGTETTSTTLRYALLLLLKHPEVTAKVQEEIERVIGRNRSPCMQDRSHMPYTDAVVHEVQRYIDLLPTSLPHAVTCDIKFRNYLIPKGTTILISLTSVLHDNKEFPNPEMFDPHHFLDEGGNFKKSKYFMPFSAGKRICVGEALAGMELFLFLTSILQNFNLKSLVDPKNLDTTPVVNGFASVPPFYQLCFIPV
Excerpt: as §2

[9] = molecular target: CYP2D6 (Homo sapiens (Human), UniProt P10635); experiment: CYP enzyme inhibition assay; format: in vitro ADME
CYP2D6, sequence (P10635 whole entry): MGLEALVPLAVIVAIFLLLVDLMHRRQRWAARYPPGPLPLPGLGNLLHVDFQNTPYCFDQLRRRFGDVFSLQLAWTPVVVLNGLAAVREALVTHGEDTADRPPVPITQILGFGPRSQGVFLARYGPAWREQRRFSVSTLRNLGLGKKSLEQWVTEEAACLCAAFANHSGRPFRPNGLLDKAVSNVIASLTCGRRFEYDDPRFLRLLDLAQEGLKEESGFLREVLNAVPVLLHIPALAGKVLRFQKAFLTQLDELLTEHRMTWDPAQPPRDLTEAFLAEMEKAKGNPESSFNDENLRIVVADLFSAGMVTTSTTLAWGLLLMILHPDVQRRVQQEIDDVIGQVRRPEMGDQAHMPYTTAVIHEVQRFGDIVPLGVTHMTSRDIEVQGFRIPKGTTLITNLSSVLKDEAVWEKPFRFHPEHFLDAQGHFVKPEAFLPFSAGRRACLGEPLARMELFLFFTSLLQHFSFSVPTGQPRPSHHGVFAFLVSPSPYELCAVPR
Excerpt: as §2

[10] = molecular target: CYP3A4-M (Homo sapiens (Human), UniProt P08684); experiment: CYP enzyme inhibition assay; format: in vitro ADME
CYP3A4-M, sequence (P08684 whole entry): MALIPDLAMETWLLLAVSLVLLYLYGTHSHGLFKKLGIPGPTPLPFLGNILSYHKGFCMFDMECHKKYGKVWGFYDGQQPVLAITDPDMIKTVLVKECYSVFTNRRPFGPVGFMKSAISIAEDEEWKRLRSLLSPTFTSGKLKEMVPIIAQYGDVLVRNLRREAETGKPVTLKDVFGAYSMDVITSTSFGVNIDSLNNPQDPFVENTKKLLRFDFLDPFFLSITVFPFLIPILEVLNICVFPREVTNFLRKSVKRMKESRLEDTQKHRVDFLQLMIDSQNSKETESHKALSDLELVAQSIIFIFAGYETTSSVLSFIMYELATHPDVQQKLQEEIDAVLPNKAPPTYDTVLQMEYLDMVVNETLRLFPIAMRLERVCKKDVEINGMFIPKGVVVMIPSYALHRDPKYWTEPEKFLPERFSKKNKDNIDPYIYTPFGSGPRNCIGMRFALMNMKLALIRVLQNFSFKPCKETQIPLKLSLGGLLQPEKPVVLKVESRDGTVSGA
Excerpt: as §2

[11] = molecular target: hERG channels (Homo sapiens (Human), UniProt Q12809); experiment: cell-based; format: cell-based; details: for Inhibitory effect on hERG current at the highest test concentration: human, 30 μM
hERG channels, sequence (Q12809 whole entry, the tested form may be a part): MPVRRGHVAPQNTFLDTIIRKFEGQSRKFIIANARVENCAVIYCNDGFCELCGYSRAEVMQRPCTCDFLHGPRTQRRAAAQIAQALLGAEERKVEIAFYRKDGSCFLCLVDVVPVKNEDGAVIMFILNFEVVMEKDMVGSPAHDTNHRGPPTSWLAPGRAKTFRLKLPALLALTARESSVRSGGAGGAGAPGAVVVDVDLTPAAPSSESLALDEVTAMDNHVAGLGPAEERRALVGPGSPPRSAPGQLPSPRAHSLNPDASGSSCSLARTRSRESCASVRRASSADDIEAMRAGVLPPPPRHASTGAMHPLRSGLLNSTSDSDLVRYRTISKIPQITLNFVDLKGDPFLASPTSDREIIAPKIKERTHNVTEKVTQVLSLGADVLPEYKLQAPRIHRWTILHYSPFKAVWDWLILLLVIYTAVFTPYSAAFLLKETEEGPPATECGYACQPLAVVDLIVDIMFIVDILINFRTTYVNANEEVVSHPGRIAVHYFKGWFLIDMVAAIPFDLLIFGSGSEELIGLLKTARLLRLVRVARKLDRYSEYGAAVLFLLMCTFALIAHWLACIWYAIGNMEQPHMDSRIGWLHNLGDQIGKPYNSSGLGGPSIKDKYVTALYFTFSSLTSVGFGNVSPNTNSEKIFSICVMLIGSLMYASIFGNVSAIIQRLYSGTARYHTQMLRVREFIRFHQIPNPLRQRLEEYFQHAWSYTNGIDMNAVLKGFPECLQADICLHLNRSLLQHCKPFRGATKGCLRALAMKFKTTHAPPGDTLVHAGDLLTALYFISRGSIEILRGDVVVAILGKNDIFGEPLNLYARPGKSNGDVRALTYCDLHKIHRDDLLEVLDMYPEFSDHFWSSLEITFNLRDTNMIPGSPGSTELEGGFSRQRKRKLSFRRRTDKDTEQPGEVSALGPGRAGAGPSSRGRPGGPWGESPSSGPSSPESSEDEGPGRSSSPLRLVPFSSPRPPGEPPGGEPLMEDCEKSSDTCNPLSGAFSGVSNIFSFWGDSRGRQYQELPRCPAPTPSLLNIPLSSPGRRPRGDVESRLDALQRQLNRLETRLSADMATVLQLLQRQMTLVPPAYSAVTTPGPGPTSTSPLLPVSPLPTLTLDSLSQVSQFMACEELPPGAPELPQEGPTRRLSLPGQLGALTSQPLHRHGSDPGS
Experimental: Whole-cell patch clamp technique was used to record hERG current. A cell suspension was added to a 35 mm Petri dish, and the dish was then placed on an inverted microscope stage. After the adherence of cells, they were perfused with extracellular fluid at a flow rate of 1-2 mL/min. A glass microelectrode was drawn by a microelectrode puller in two steps, and the pipette tip resistance was between 2-5 MΩ. After establishing the whole cell recording, the clamp potential was held at −80 mV, followed by depolarization to +60 mV when given voltage stimulation and then repolarization to −50 mV to elicit hERG tail current. All recordings were performed after the current was stable. Extracellular perfusion administration started from a low concentration, staying for 5-10 min at each concentration until the current was stable, and then cells were further perfused with the next concentration.

[12] = molecular target: PHD1 (Homo sapiens (Human), UniProt Q96KS0); experiment: PHD enzyme assay (Eu-VBC TR-fluorescence); format: biochemical
PHD1, sequence (Q96KS0 whole entry): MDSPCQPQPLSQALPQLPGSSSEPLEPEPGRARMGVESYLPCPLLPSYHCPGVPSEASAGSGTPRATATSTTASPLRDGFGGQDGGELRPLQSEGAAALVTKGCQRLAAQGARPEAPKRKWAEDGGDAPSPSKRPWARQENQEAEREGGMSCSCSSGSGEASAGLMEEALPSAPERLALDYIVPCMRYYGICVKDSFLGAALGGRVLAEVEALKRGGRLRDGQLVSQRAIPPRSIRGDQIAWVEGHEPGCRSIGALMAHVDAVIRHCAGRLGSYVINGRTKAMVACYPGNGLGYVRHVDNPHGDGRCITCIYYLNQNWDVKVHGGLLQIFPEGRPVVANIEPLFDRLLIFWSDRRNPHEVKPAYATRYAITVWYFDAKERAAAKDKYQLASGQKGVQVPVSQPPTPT
Experimental: (§3) VHL/elongin B/elongin C were constructed, expressed and purified, and VHL was labeled. PHD1, PHD2 and PHD3 were constructed, expressed and purified. VBC protein was labeled with DELFIA Eu-Labeling Kit. A NeutrAvidin 96-well plate was blocked after the addition of 200 μL Blocker Casein to each well, followed by incubation for 30 min. Each well was washed 3 times by adding 200 μL of washing buffer each time. A 200 nM HIF-1a 556-574 solution was prepared with washing buffer, and 100 μL of the solution was added to each well, followed by incubation for 60 min. Each well was washed 3 times by adding 200 μL of washing buffer each time. A 1 mM Biotin solution was prepared with Blocker Casein, and 100 μL of the solution was added to each well, followed by incubation for 30 min. Each well was washed 3 times by adding 200 μL of washing buffer each time. A 20× compound solution was prepared with PHD reaction buffer, with the final concentration of DMSO being 1%. PHD solutions were prepared with PHD reaction buffer, and the concentrations of PHD1, 2, and 3 solutions were 10 ng/μL, 5 ng/μL, and 15 ng/μL, respectively. 95 μL of the PHD solution was added to each compound well, followed by the addition of 5 μL of the compound solution, 95 μL of the PHD solution was added to each full active well, followed by the addition of 5 μL of the PHD reaction buffer; and 100 μL of the PHD reaction buffer was added to each blank well. After mixing homogeneously, the wells were incubated for 60 min. Each well was washed 3 times by adding 200 μL of washing buffer each time A 1 ng/μL Eu-VBC solution was prepared with Eu-VBC binding buffer, and 100 μL of the solution was added to each well, followed by incubation for 60 min. Each well was washed 6 times by adding 200 μL DELFIA Wash Concentrate each time. 100 μL DELFIA Enhancement Solution was added to each well. A microplate reader was used to read TR-Fluorescence at Ex340 and Em615. The flurescence of the sample wells was recorded as FLUsample, the flurescence of the full active wells was recorded as FLU100%, and the flurescence of the blank well was recorded as FLU0%.

[13] = molecular target: PHD3 (Homo sapiens (Human), UniProt Q9H6Z9); experiment: PHD enzyme assay (Eu-VBC TR-fluorescence); format: biochemical
PHD3, sequence (Q9H6Z9 whole entry): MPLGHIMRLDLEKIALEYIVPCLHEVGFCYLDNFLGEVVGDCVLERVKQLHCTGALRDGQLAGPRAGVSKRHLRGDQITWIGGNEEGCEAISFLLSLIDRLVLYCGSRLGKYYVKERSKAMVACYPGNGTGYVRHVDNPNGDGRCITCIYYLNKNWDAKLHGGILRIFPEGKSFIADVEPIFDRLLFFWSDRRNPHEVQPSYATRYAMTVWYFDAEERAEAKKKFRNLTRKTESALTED
Experimental: as §3

[14] = 10 mg/kg, three times each week, 15 times, x ± sd
[15] = compared with the blank control group

| IC50 [6] | IC50 [7] | IC50 [8] | IC50 [9] | IC50 [10] | Structure (SMILES) | Reticulocytes (RETIC), average ([1]; 10 mg/kg p.o.) | fold induction at 30 µM [2] | fold induction at 30 µM [3] | EPO OD value ([5]; 10 mg/kg) | EPO OD value ([5]; 50 mg/kg) | IC50 [11] | Inhibitory effect on hERG current at the highest test concentration [11] | also measured |
| --- | --- | --- | --- | --- | --- | --- | --- | --- | --- | --- | --- | --- | --- |
|  |  |  |  |  | Cc1nc(C(=O)NCC(=O)O)c(O)c2ccc(Oc3ccccc3)cc12 [FG-4592, reference compound] | 4.73 | 8.5 to 10 | 8.5 to 10 | A (A represents 1.0<EPO OD value<1.5) | A (A represents 1.0<EPO OD value<1.5) |  |  | Reticulocytes (RETIC), average ([1]; 50 mg/kg p.o.): 7.42; Reticulocyte counts compared with normal animals ([1]; 72 h after single administration, FG4592 statement at 10 mg/kg): no significant difference from normal animals; Red blood cells ([4]; 10 mg/kg, three times each week, 15 times, blood 24 hours after last administration, x ± sd): 8.26 ± 0.41** 10^12/L; Alanine aminotransferase [4, 14]: 40.4 ± 3.58; Glutamic-oxalacetic transaminase [4, 14]: 11620 ± 10.96; Hematocrit [4, 14]: 47.7 ± 2.19; Hemoglobin [4, 14]: 16720 ± 8.47 g/L; Hepcidin [4, 14]: 2.59 ± 0.7015 ng/mL; Effect on glutamic-oxalacetic transaminase [4, 15]: no significant effect; Effect on liver glutamic-pyruvic aminotransferase [4, 15]: no significant effect; Effect on HCT in rats with residual kidney ([4]; compared with the model group): significantly increase; Effect on HGB in rats with residual kidney ([4]; compared with the model group): significantly increase; Effect on RBC in rats with residual kidney ([4]; compared with the model group): significantly increase; Effect on hepcidin in rats with residual kidney ([4]; compared with the model group): significantly inhibit |
| > 50 µM | > 50 µM | > 50 µM | > 50 µM | > 50 µM | O=C(O)CNC(=O)c1nc(Br)c2nc(Oc3ccccc3Cl)ccc2c1O [Link-125, 2-(2-(2-chlorophenoxy)-5-hydroxy-8-bromo-1,7-naphthyridine-6-formamido) Acetic Acid] | 5.62 | 4.5 to 8.5 | 1 to 4.5 | A (A represents 1.0<EPO OD value<1.5) | D (D represents EPO OD value>3) | > 30 µM | far from the IC50 value | HIF-1α protein expression compared with blank control [2]: higher than that of the blank control; HIF-2α protein expression compared with blank control [3]: higher than that of the blank control |
|  |  |  |  |  | O=C(O)CNC(=O)c1nc(Cl)c2cc(Oc3ccccc3)ccc2c1O [Comparative Example 1, reference compound] |  |  |  |  |  |  |  | IC50 [12]: 273 nM; IC50 [13]: 561 nM |
| > 50 µM | > 50 µM | > 50 µM | > 50 µM | > 50 µM | O=C(O)CNC(=O)c1nc(Cl)c2nc(Oc3ccc(Cl)cc3)ccc2c1O [Link-128, 2-(2-(4-chlorophenoxy)-5-hydroxy-8-chloro-1,7-naphthyridine-6-formamido) Acetic Acid] | 6.15 |  |  | A (A represents 1.0<EPO OD value<1.5) | D (D represents EPO OD value>3) | > 30 µM | far from the IC50 value |  |
| > 50 µM | > 50 µM | > 50 µM | > 50 µM | > 50 µM | O=C(O)CNC(=O)c1nc(Br)c2nc(Oc3ccc(Cl)cc3)ccc2c1O [Link-129, 2-(2-(4-chlorophenoxy)-5-hydroxy-8-bromo-1,7-naphthyridine-6-formamido) Acetic Acid] | 7.30 | 1 to 4.5 | 1 to 4.5 | D (D represents EPO OD value>3) | D (D represents EPO OD value>3) | > 30 µM | far from the IC50 value | HIF-1α protein expression compared with blank control [2]: higher than that of the blank control; HIF-2α protein expression compared with blank control [3]: higher than that of the blank control; Promotion of expression of erythropoietin in vivo ([5]; at 10 mg/kg): significantly promote the expression of erythropoietin |
|  |  |  |  |  | O=C(O)CNC(=O)c1ncc2nc(Oc3ccccc3)ccc2c1O [Comparative Example 2, 2-(5-hydroxy-2-phenoxy-1,7-naphthyridine-6-formamido) acetic acid, reference compound] |  |  |  |  |  |  |  | IC50 [12]: 335 nM; IC50 [13]: 492 nM |
| 37.9 µM | > 50 µM | > 50 µM | > 50 µM | > 50 µM | O=C(O)CNC(=O)c1nc(Br)c2nc(Oc3cccc(Cl)c3)ccc2c1O [Link-127, 2-(2-(3-chlorophenoxy)-5-hydroxy-8-bromo-1,7-naphthyridine-6-formamido) Acetic Acid] | 5.63 |  |  | A (A represents 1.0<EPO OD value<1.5) | D (D represents EPO OD value>3) | > 30 µM | far from the IC50 value |  |
| > 50 µM | > 50 µM | > 50 µM | > 50 µM | > 50 µM | O=C(O)CNC(=O)c1nc(Cl)c2nc(Oc3cccc(Cl)c3)ccc2c1O [Link-126, 2-(2-(3-chlorophenoxy)-5-hydroxy-8-chloro-1,7-naphthyridine-6-formamido) Acetic Acid] | 5.87 |  |  | A (A represents 1.0<EPO OD value<1.5) | D (D represents EPO OD value>3) | > 30 µM | far from the IC50 value |  |
